Assays:
HDV genotype 1 virus = test: HDV infection assay (HDAg immunofluorescence), Huh7-NTCP cells; type: cell-based, hepatitis delta virus; conditions: Hepatitis D (Huh7-NTCP)
SUDV Boniface = type: cell-based, Sudan virus; conditions: read-out: RDV EC50
[1] = system: Influenza B (B/Brisbane/60/2008); test: CPE assay, MDCK cells; type: cell-based; conditions: Influenza B virus; Influenza B (B/Brisbane/60/2008) [MDCK]; read-out: Antiviral activity EC50
[2] = Multiplex cytotoxicity (calcein AM) in HCV replicon assay; conditions: human, Huh-7-lunet HCV genotype 2a replicon cells
[3] = Cytotoxicity in HBV assay; conditions: human, HepG2-NTCP cells (clone HY12), HBV-infected
Yellow fever virus (17D) = test: microbe, parasite or virus in culture; type: cell-based
Sudan virus (Gulu) = test: microbe, parasite or virus in culture; type: cell-based
[4] = system: Dengue 1 virus (Western Pacific); test: microbe, parasite or virus in culture; type: cell-based; conditions: Dengue 1 virus (Western Pacific) [Huh-7]
Zika virus (MR766) = test: microbe, parasite or virus in culture; type: cell-based
[5] = system: all MARV and Ravn virus (RAVV) isolates tested; test: microbe, parasite or virus in culture; type: cell-based, Marburg virus; conditions: Filoviridae, HeLa, read-out: EC50 values against all MARV and RAVV isolates tested
[6] = system: Dengue 1 virus (Djibouti); test: microbe, parasite or virus in culture; type: cell-based
HCV GT1b replicon = test: HCV subgenomic replicon Renilla luciferase assay, Huh-7-lunet; type: cell-based, hepatitis C virus; conditions: Hepatitis C (1b) [Huh-7-lunet]
MARV Ci67 [7] = type: cell-based, Marburg virus
Marburg virus (Ci67) = conditions: read-out: Previously reported activity EC50; cited from earlier work
MARV Ci67 [8] = test: organism not typed; type: cell-based, Marburg virus; conditions: HeLa; n = 9; read-out: RDV activity against MARV EC50
MDCK cells = test: Compound cytotoxicity by MTS dye reduction; conditions: MDCK; listed as Influenza B (B/Brisbane/60/2008)
[9] = Compound cytotoxicity by MTS dye reduction; conditions: dog, MDCK cells
[10] = system: Dengue 4 virus (Dakar_HD_34460); test: microbe, parasite or virus in culture; type: cell-based
Enterovirus 68D = conditions: listed as Enterovirus 68D; different cells and/or assay protocols; read-out: Previously reported activity EC50; cited from earlier work
[11] = Cytotoxicity by nuclei count in HDV assay; conditions: human, Huh7-NTCP cells (HDV assay)
Ebola virus (Kikwit) = test: microbe, parasite or virus in culture; type: cell-based
[12] = system: rhinoviruses of serotypes A and B; test: CPE assay, H1 HeLa cells (summary over rhinoviruses); type: cell-based; conditions: Enterovirus, read-out: EC50 range against rhinoviruses of serotypes A and B
in vitro = conditions: human
Ebola virus (Makona) = test: microbe, parasite or virus in culture; type: cell-based
Marburg (Angola) = test: microbe, parasite or virus in culture; type: cell-based, Marburg virus
[13] = system: Japanese encephalitis (14–14-2); test: microbe, parasite or virus in culture; type: cell-based; conditions: Japanese encephalitis (14–14-2) [Huh-7]
[14] = Cytotoxicity, CellTiter-Glo, 72 h (OC43 protocol); conditions: human, Huh-7 cells
[15] = system: Yellow fever virus (YFS11); test: microbe, parasite or virus in culture; type: cell-based
Marburg (Nganda) = test: microbe, parasite or virus in culture; type: cell-based, Marburg virus
Bundibugyo virus = test: microbe, parasite or virus in culture; type: cell-based
Rhinovirus 14 = test: CPE assay, H1 HeLa cells; type: cell-based; conditions: Rhinovirus 14 [H1 HeLa]
Dengue 2 virus (RL) = test: microbe, parasite or virus in culture; type: cell-based
HCV genotype 1b and 2a = test: HCV subgenomic replicon assay (summary of both genotypes); type: cell-based; conditions: Hepatitis C virus; genotype 1b and 2a subgenomic replicon; read-out: EC50 against replicons of both HCV genotypes
Sudan virus (Boneface) = test: microbe, parasite or virus in culture; type: cell-based
DENV = test: microbe, parasite or virus in culture; type: cell-based; conditions: Dengue virus, Huh-7, read-out: EC50 range against DENV
Ebola virus = conditions: read-out: Previously reported activity EC50; cited from earlier work
[16] = system: Human Coronavirus OC43 (HCoV-OC43); test: HCoV-OC43 anti-nucleoprotein ELISA antiviral assay, Huh-7 cells; type: cell-based; conditions: OC43 [Huh-7]
[17] = Cytotoxicity, CellTiter-Glo, 96 h (229E protocol); conditions: human, H1 HeLa cells
[18] = Sudan ebolavirus, HeLa, n = 1, read-out: Antiviral activity EC50
[19] = Dengue virus, Huh-7, read-out: Antiviral activity EC50
[20] = Zaire ebolavirus, HeLa, read-out: Antiviral activity EC50
[21] = Filoviridae, HeLa, read-out: Antiviral activity EC50

In the case of `CCC(CC)COC(=O)[C@H](C)N[P@](=O)(OC[C@H]1O[C@@](C#N)(c2ccc3c(N)ncnn23)[C@H](O)[C@@H]1O)Oc1ccccc1` [RDV, Remdesivir], the “Selectivity index (SI)” value (HDV genotype 1 virus) is reported as “Low (When minimal RDV antiviral activity is observed for a particular virus, low SI is indicated)”, the EC50 (HDV genotype 1 virus; Hepatitis delta virus, read-out: Antiviral activity EC50) is reported as over 5000 nM and the EC50 (SUDV Boniface) is reported as 212 nM. It also gave an EC50 [1] of over 50000 nM, a CC50 [2] of 17000 ± 3000 nM and a CC50 at 5 days [3] of 7400 nM. The “Selectivity index (SI) = CC50/EC50” value (Yellow fever virus (17D)) was 186, the EC50 (Yellow fever virus (17D); Yellow fever virus, Huh-7, read-out: Antiviral activity EC50) was 180 ± 30 nM and the “Selectivity index (SI) = CC50/EC50” value (Sudan virus (Gulu)) was over 192. For the same compound, the EC50 (Sudan virus (Gulu); [18]) was 60 nM, the “Selectivity index (SI) = CC50/EC50” value [4] was 159 and the EC50 ([4]; n = 1, read-out: Antiviral activity EC50) was 210 nM. For the same compound, the “Selectivity index (SI) = CC50/EC50” value (Zika virus (MR766)) was 29, the EC50 (Zika virus (MR766); Zika virus, Huh-7, read-out: Antiviral activity EC50) was 1150 ± 30 nM and the EC50 [5] was 24 to 68 nM. For the same compound, the “Selectivity index (SI) = CC50/EC50” value [6] was 108, the EC50 [6, 19] was 310 ± 90 nM and the “Selectivity index (SI) = CC50/EC50” value (HCV GT1b replicon) was over 225. The EC50 (HCV GT1b replicon; Hepatitis C virus, GT1B, read-out: Antiviral activity EC50) was 89 ± 47 nM, the “maximum fold reduction of RDV EC50 in the presence of favipiravir” value (MARV Ci67 [7]) was “≥ tenfold” and the EC50 (Marburg virus (Ci67)) was 10 to 20 nM. The EC50 (MARV Ci67 [8]) was 109 nM, the CC50 (MDCK cells) was over 100000 nM and the CC50 [9] was over 100000 nM. For the same compound, the “Selectivity index (SI) = CC50/EC50” value [10] was 176, the EC50 [10, 19] was 190 ± 50 nM and the EC50 (Enterovirus 68D) was 100 to 1000 nM. The CC50 [11] was 8000 to 10000 nM, the “Selectivity index (SI) = CC50/EC50” value (Ebola virus (Kikwit)) was over 36 and the EC50 (Ebola virus (Kikwit); [20]) was 70 ± 8 nM. It also gave an EC50 [12] of 385 to 750 nM, a CC50 at 48 h (in vitro) of over 2500 nM and a CC50 (in vitro; RDV CC50 (SUDV assay)) of over 2500 nM. For the same compound, the “Selectivity index (SI) = CC50/EC50” value (Ebola virus (Makona)) was over 32, the EC50 (Ebola virus (Makona); [20]) was 78 ± 4 nM and the “Selectivity index (SI) = CC50/EC50” value (Marburg (Angola)) was over 56. The EC50 (Marburg (Angola); [21]) was 45 ± 30 nM, the “Selectivity index (SI) = CC50/EC50” value [13] was 98 and the EC50 ([13]; Japanese encephalitis virus, n = 1, read-out: Antiviral activity EC50) was 340 nM. For the same compound, the CC50 at 72 h [14] was 18900 ± 1800 nM, the “Selectivity index (SI) = CC50/EC50” value [15] was 32 and the EC50 ([15]; Yellow fever virus, Huh-7, n = 1, read-out: Antiviral activity EC50) was 1060 nM. For the same compound, the “Selectivity index (SI) = CC50/EC50” value (Marburg (Nganda)) was over 104, the EC50 (Marburg (Nganda); [21]) was 24 ± 4 nM and the “Selectivity index (SI) = CC50/EC50” value (Bundibugyo virus) was over 53. For the same compound, the EC50 (Bundibugyo virus; Bundibugyo virus, HeLa, read-out: Antiviral activity EC50) was 190 ± 20 nM, the EC50 (Rhinovirus 14; Enterovirus, read-out: Antiviral activity EC50) was 385 ± 318 nM and the “Selectivity index (SI) = CC50/EC50” value (Rhinovirus 14) was over 26. The “Selectivity index (SI) = CC50/EC50” value (Dengue 2 virus (RL)) was 115, the EC50 (Dengue 2 virus (RL); [19]) was 290 ± 70 nM and the EC50 (HCV genotype 1b and 2a) was 72 to 89 nM. For the same compound, the “Selectivity index (SI) = CC50/EC50” value (Sudan virus (Boneface)) was over 21, the EC50 (Sudan virus (Boneface); [18]) was 120 nM and the EC50 (DENV) was 120 to 230 nM. For the same compound, the EC50 (Ebola virus) was 3 to 140 nM, the EC50 ([16]; Betacoronavirus 1) was 67 ± 5 nM and the “Selectivity index (SI) = CC50/EC50” value [16] was 282. The CC50 at 96 h [17] was over 50000 nM.
